Measured values taken from ChEMBL document CHEMBL4699423, “Photocontrolled activation of small molecule cancer therapeutics” (RSC Med Chem, 2020).

What was measured:
MDA-MB-231 [1] = assay: Cytotoxicity against human MDA-MB-231 cells in dark; assay type: functional, cell-based
HCT-116 = assay: Cytotoxicity against human HCT-116 cells; assay type: functional; details: read-out: LD50 (the source's name)
MDA-MB-468 = assay: Cytotoxicity against human MDA-MB-468 cells; assay type: functional; details: read-out: LD50 (the source's name)
[2] = Cytotoxicity against human MCF-10A cells; assay type: cell-based; details: read-out: LD50 (the source's name)
MDA-MB-231 [3] = assay: Cytotoxicity against human MDA-MB-231 cells; assay type: functional, cell-based

Row | SMILES | EC50 (MDA-MB-231 [1]) [nM] | CC50 (HCT-116) [nM] | CC50 (MDA-MB-468) [nM] | CC50 [2] [nM] | EC50 (MDA-MB-231 [3]) [nM]
1 | COc1ccc(/N=N/c2cc(OC)c(OC)c(OC)c2)cc1O | 38000 | – | – | – | –
2 | CC(C)C[C@H](NC(=O)[C@@H](NC(=O)c1ccc(/N=N/c2ccc(-c3ccccc3)cc2)cc1)[C@@H](C)O)B1OC2C[C@@H]3C[C@H](C2O1)C3(C)C (stereo partly drawn) | – | 246 | 683 | > 5000 | –
3 | COc1ccc(/N=N\c2cc(OC)c(OC)c(OC)c2)cc1O | – | – | – | – | 500
4 | CC(C)C[C@H](NC(=O)[C@@H](NC(=O)c1ccc(/N=N\c2ccc(-c3ccccc3)cc2)cc1)[C@@H](C)O)B1OC2C[C@@H]3C[C@H](C2O1)C3(C)C (stereo partly drawn) | – | 212 | 1030 | 144 | –
